Experiments:
IKZF1 (Ikaros) = IKZF1 (Ikaros) (Homo sapiens (Human), UniProt Q13422+Q96SW2); experiment: IKZF1 reporter degradation assay (HEK 293T IKZF1-mNeonGreen reporter cell line); format: cell-based; settings: HEK 293T reporter cells, 24 hour incubation
Source text: Polycistronic plasmids were constructed for the mammalian expression of fluorescent reporter fusions of human transcription factors IKZF1 (Ikaros), IKZF2 (Helios), and IKZF3 (Aiolos). The respective protein sequences had their C-terminal end joined to a GGGGS linker repeated three times followed by mNeonGreen, P2A sequence, and mScarlet. The DNA sequences of the open reading frames are as follows:
IKZF1, IKZF2, and IKZF3 constructs were cloned into the UCOE Hygromycin expression vectors (Millipore Sigma). Reporter constructs were transfected using cationic lipid reagents into adherent HEK 293T cells and stable integrants were selected by treatment with 200 μg/mL hygromycin B. Clonal populations were obtained from the population of stable integrants either by limiting dilution or fluorescence activated cell sorting.
The clonal stable cell lines were maintained under constant 200 μg/mL hygromycin B selection while being passaged for use in the degradation assays. […] The fluorescence intensity of the IKZF1/2/3-mNeonGreen (FITC channel) and mScarlet (PE channel) reporters were routinely analyzed by flow cytometry to confirm consistent expression levels between experiments.
The IKZF1/IKZF2/IKZF3 degradation assays were carried out by harvesting the HEK 293T reporter cell lines and resuspending the cells in media formulated for reduced background fluorescence (FluoroBrite; Thermo Fisher). The respective cell lines were seeded at a density of 4000 cells/well into black-walled 384-well optical grade assay tissue culture plates. The cells were incubated overnight at 37° C. to allow for attachment to the assay plate. Dilutions of the compounds were prepared in DMSO from 10 mM compound stocks. The assay plates were treated with appropriate concentrations of the compounds by dispensing the DMSO dilutions in quadruplicate wells with an upper limit of 0.5% final DMSO.
After 24 hour incubation with the compounds, the assay plates were imaged on an ImageXpress Pico microscopy system (cells maintained at 37° C. during imaging) to obtain the fluorescent readouts. The assay plates were imaged in the FITC and Tetramethylrhodamine (TRITC) channels to obtain the mNeonGreen fluorescence intensity (reporter degradation data) and mScarlet fluorescence intensity (for cell segmentation). 293T-IKZF1 and 293T-IKZF3 reporter cell lines were imaged with exposures of 500 milliseconds (ms) for both FITC and TRITC channels, while the 293T-IKZF2 reporter cell line was imaged with exposures of 1000 ms for FITC and 1250 ms for TRITC. The resulting data was analyzed with Cell Reporter Xpress software using the 2-channel cell scoring analysis with a “percent positive” readout. The TRITC channel was selected for the “nuclei” segmentation with a threshold of 20 while the FITC channel was selected for the “Marker 1” segmentation and a threshold of 100 for the IKZF and IKZF3 reporter lines. […] The minimum segmentation width was set to 6 micrometers and the maximum segmentation width was set to 15 micrometers for all cell lines. The DC50 calculations were determined by regression to best fit four-parameter logistic curves using GraphPad Prism.

GSPT1 = GSPT1 (Homo sapiens (Human), UniProt P15170+Q96SW2); experiment: GSPT1 reporter degradation assay (HEK293 hGSPT1 HiBiT-tagged cells); format: cell-based; settings: 24 hour incubation
Experimental: HEK293_hGSPT1_HiBiT-tagged cells were generated using CRISPR-Cas12a technology. Briefly, ˜400,000 HEK293 cells were transiently co-transfected with precomplexed ribonuclear proteins (RNPs) consisting of […] of crRNA (IDT), […] of Cas12a protein (IDT), 3 μg of ssODN donor (IDT; AltRTM modifications), 78 pmol of electroporation enhancer (IDT), and 200 ng of pMaxGFP (Lonza). The transfection was performed via nucleofection (Lonza, 4D-Nucleofector X-unit) using solution P3 and program CM-130 in a (20 μL) cuvette. Five days post-nucleofection, cells were single-cell-sorted for GFP+ (transfected) cells by FACs in 96-well plates and clonally selected. Clones were screened and verified for the desired modification via targeted deep sequencing using gene-specific primers with partial Illumina adapter overhangs as previously described. In brief, clonal cell pellets were harvested, lysed, and used to generate gene-specific amplicons with partial Illumina adapters in PCR #1. Amplicons were indexed in PCR #2 and pooled with other targeted amplicons for other loci to create sequence diversity. Additionally, 10% PhiX sequencing control V3 (Illumina) was added to the pooled amplicon library prior to running the sample on a Miseq Sequencer System (Illumina) to generate paired 2×250 bp reads. Samples were demultiplexed using the index sequences, fastq files were generated, and NGS analysis was performed using CRIS.py.
The GSTP1 degradation assay was carried out by harvesting the HEK 293T reporter cell lines and resuspending the cells in media formulated for reduced background fluorescence (FluoroBrite; Thermo Fisher). The respective cell lines were seeded at a density of 8,000 cells/well into white-opaque 384-well optical grade assay tissue culture plates (Greiner 781080-20). The cells were incubated overnight at 37° C. to allow for attachment to the assay plate. Dilutions of the compounds were prepared in DMSO from 10 mM compound stocks. […] Plates were centrifuged at 320×g for 2 minutes at room temperature, and subsequently incubated at 37° C.
After 24 hour incubation with the compounds, the plates were allowed to cool to room temperature for 10 minutes. 30 μL of HiBiT lytic buffer+1:50 HiBiT substrate Solution were added to each well. Plates were centrifuged at 320×g for 2 minutes at room temperature and then incubated with shaking at room temperature for 10 minutes covered with foil. Plates were read on a CLARIOstar microplate reader (BMG LabTech), measuring at 450 nm (donor emission) and 610 nm or 630 nm (acceptor emission). The DC50 values were determined by regression to best fit four-parameter logistic curves using GraphPad Prism.

GSPT1, sequence (P15170 whole entry): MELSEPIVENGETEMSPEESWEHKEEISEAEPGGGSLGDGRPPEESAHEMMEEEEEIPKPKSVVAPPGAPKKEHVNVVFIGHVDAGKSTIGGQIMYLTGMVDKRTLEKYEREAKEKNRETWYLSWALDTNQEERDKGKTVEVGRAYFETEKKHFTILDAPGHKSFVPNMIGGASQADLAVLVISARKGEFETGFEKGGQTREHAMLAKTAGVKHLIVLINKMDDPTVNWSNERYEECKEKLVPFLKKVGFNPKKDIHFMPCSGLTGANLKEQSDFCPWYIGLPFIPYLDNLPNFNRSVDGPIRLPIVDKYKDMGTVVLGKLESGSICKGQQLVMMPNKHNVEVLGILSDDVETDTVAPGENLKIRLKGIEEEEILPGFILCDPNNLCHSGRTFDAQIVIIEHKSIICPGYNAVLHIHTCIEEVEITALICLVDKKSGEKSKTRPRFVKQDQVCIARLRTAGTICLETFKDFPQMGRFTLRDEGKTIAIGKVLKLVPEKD
GSPT1, sequence (Q96SW2 whole entry): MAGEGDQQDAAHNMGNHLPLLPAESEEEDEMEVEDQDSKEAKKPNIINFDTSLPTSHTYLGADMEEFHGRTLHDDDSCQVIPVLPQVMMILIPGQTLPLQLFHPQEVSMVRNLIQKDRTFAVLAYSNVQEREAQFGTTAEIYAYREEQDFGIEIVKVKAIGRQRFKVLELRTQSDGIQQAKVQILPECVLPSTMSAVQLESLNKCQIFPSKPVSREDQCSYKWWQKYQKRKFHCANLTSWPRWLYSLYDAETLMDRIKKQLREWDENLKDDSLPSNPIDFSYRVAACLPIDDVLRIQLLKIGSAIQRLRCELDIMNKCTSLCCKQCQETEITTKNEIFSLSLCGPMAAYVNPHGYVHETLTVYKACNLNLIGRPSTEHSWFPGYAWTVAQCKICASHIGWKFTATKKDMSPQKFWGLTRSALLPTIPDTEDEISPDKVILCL
GSPT1, sequence (Q16531 whole entry partner): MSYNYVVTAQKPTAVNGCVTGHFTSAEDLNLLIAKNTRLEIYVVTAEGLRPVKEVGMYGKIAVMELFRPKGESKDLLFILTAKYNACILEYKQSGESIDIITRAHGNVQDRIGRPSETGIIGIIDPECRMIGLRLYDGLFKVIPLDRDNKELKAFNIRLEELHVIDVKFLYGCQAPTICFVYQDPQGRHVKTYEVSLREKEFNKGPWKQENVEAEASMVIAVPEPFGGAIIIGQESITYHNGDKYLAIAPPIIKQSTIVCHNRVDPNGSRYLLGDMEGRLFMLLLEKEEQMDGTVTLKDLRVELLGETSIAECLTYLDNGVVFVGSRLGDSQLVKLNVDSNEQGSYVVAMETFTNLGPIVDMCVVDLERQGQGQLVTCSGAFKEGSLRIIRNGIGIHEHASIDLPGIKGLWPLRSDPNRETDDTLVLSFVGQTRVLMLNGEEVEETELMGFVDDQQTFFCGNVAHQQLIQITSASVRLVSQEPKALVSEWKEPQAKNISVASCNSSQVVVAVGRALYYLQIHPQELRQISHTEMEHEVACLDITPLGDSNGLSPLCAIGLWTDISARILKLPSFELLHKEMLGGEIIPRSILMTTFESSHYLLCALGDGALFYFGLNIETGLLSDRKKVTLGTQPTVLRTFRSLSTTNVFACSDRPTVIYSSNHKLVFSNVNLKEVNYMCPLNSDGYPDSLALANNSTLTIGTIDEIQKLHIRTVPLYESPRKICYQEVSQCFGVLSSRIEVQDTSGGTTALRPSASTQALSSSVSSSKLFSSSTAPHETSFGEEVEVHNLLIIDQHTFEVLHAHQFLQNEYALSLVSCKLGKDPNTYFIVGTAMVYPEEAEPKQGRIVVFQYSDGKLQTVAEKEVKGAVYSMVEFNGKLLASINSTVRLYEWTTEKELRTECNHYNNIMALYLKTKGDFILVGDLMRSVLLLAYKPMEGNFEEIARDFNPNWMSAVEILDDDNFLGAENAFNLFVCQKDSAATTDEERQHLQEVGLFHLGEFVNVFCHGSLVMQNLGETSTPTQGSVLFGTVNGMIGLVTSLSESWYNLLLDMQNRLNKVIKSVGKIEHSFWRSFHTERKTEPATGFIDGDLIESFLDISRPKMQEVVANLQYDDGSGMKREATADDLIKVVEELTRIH
IKZF1 (Ikaros), sequence (Q13422 whole entry, the tested form may be a part): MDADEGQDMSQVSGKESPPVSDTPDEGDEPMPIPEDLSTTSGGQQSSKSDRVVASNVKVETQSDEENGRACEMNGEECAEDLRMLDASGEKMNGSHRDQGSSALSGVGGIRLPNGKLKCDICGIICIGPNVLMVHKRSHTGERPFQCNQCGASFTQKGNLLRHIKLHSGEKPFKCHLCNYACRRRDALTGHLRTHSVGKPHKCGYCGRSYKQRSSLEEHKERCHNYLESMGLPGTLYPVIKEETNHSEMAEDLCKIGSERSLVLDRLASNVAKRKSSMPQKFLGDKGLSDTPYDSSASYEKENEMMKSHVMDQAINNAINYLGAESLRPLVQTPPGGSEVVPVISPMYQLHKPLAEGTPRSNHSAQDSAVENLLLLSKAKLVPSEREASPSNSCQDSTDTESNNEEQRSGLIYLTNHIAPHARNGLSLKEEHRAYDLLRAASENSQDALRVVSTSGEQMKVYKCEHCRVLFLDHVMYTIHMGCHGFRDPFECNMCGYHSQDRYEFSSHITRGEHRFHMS
IKZF1 (Ikaros), sequence (Q96SW2 whole entry, the tested form may be a part): as the sequence (Q96SW2 whole entry) above
IKZF1 (Ikaros), sequence (Q16531 whole entry partner, the tested form may be a part): as the sequence (Q16531 whole entry partner) above

Row | DC50 (IKZF1 (Ikaros)) [µM] | DC50 (GSPT1) [µM] | SMILES
1 | > 30 | > 30 | O=C1CCC(N2Cc3cc(O[C@H]4CCCC[C@@H]4N4CC(C5CCCCC5)C4)ccc3C2=O)C(=O)N1 (stereo partly drawn) [Compound 1, 3-(5-(((1S,2S)-2-(3-cyclohexylazetidin-1-yl)cyclohexyl)oxy)-1-oxoisoindolin-2-yl)piperidine-2,6-dione]
2 | > 30 | > 30 | O=C1CCC(N2Cc3cc(O[C@H]4CCCC[C@@H]4N4CC(C5CCC(F)(F)CC5)C4)ccc3C2=O)C(=O)N1 (stereo partly drawn) [Compound 2, 3-(5-(((1S,2S)-2-(3-(4,4-difluorocyclohexyl)azetidin-1-yl)cyclohexyl)oxy)-1-oxoisoindolin-2-yl)piperidine-2,6-dione]
3 | > 30 | > 30 | O=C1CCC(N2Cc3cc(O[C@H]4CCCC[C@@H]4N4CC(C5CC5)C4)ccc3C2=O)C(=O)N1 (stereo partly drawn) [Compound 3, 3-(5-(((1S,2S)-2-(3-cyclopropylazetidin-1-yl)cyclohexyl)oxy)-1-oxoisoindolin-2-yl)piperidine-2,6-dione]
4 | > 30 | > 30 | O=C1CCC(N2Cc3cc(O[C@H]4CCCC[C@@H]4N4CC(C5CCC5)C4)ccc3C2=O)C(=O)N1 (stereo partly drawn) [Compound 5, 3-(5-(((1S,2S)-2-(3-cyclobutylazetidin-1-yl)cyclohexyl)oxy)-1-oxoisoindolin-2-yl)piperidine-2,6-dione]
5 | > 30 | > 30 | O=C1CCC(N2Cc3cc(O[C@H]4CCCC[C@@H]4N4CC(C5CCCC5)C4)ccc3C2=O)C(=O)N1 (stereo partly drawn) [Compound 6, 3-(5-(((1S,2S)-2-(3-cyclopentylazetidin-1-yl)cyclohexyl)oxy)-1-oxoisoindolin-2-yl)piperidine-2,6-dione]
6 | > 30 | > 30 | O=C1CCC(N2Cc3cc(O[C@H]4CCC[C@@H]4N4CC(C5CCC(F)(F)CC5)C4)ccc3C2=O)C(=O)N1 (stereo partly drawn) [Compound 13, 3-(5-(((1S,2S)-2-(3-(4,4-difluorocyclohexyl)azetidin-1-yl)cyclopentyl)oxy)-1-oxoisoindolin-2-yl)piperidine-2,6-dione]
7 | > 30 | > 30 | CC(C)OC1CCC(C2CN([C@H]3CCCC[C@@H]3Oc3ccc4c(c3)CN(C3CCC(=O)NC3=O)C4=O)C2)CC1 (stereo partly drawn) [Compound 16, 3-(5-(((1S,2S)-2-(3-((cis)-4-isopropoxycyclohexyl)azetidin-1-yl)cyclohexyl)oxy)-1-oxoisoindolin-2-yl)piperidine-2,6-dione]
8 | > 30 | > 30 | CC(C)OC1CCC(C2CN([C@H]3CCCC[C@@H]3Oc3ccc4c(c3)CN(C3CCC(=O)NC3=O)C4=O)C2)CC1 (stereo partly drawn) [Compound 17, 3-(5-(((1S,2S)-2-(3-((trans)-4-isopropoxycyclohexyl)azetidin-1-yl)cyclohexyl)oxy)-1-oxoisoindolin-2-yl)piperidine-2,6-dione]
9 | > 30 | > 30 | O=C1CCC(N2Cc3cc(O[C@H]4CCCC[C@@H]4N4CC(C5CC(F)(F)C5)C4)ccc3C2=O)C(=O)N1 (stereo partly drawn) [Compound 18, 3-(5-(((1S,2S)-2-(3-(3,3-difluorocyclobutyl)azetidin-1-yl)cyclohexyl)oxy)-1-oxoisoindolin-2-yl)piperidine-2,6-dione]
10 | > 30 | > 30 | CCOC1CCC(C2CN([C@H]3CCCC[C@@H]3Oc3ccc4c(c3)CN(C3CCC(=O)NC3=O)C4=O)C2)CC1 (stereo partly drawn) [Compound 19, 3-(5-(((1S,2S)-2-(3-(4-ethoxycyclohexyl)azetidin-1-yl)cyclohexyl)oxy)-1-oxoisoindolin-2-yl)piperidine-2,6-dione]
11 | > 30 | > 30 | O=C1CCC(N2Cc3cc(O[C@H]4CCCC[C@@H]4N4CC(C5CCCC(F)(F)C5)C4)ccc3C2=O)C(=O)N1 (stereo partly drawn) [Compound 20, 3-(5-(((1S,2S)-2-(3-(3,3-difluorocyclohexyl)azetidin-1-yl)cyclohexyl)oxy)-1-oxoisoindolin-2-yl)piperidine-2,6-dione]
12 | > 30 | > 30 | O=C1CCC(N2Cc3cc(O[C@H]4CCCC[C@@H]4N4CC(C5CCC(OC(F)F)CC5)C4)ccc3C2=O)C(=O)N1 (stereo partly drawn) [Compound 21, 3-(5-(((1S,2S)-2-(3-(4-(difluoromethoxy)cyclohexyl)azetidin-1-yl)cyclohexyl)oxy)-1-oxoisoindolin-2-yl)piperidine-2,6-dione]
13 | > 30 | > 30 | O=C1CCC(N2Cc3cc(O[C@H]4CCC[C@@H]4N4CC(C5CC5)C4)ccc3C2=O)C(=O)N1 (stereo partly drawn) [Compound 22, 3-(5-(((1S,2S)-2-(3-cyclopropylazetidin-1-yl)cyclopentyl)oxy)-1-oxoisoindolin-2-yl)piperidine-2,6-dione]
14 | > 30 | > 30 | O=C1CCC(N2Cc3c(ccc(O[C@H]4CCCC[C@@H]4N4CC(C5CC5)C4)c3F)C2=O)C(=O)N1 (stereo partly drawn) [Compound 24, 3-(5-(((1S,2S)-2-(3-cyclopropylazetidin-1-yl)cyclohexyl)oxy)-4-fluoro-1-oxoisoindolin-2-yl)piperidine-2,6-dione]
15 | > 30 | > 30 | O=C1CCC(N2Cc3c(ccc(O[C@H]4CCCC[C@@H]4N4CC(C5CCC5)C4)c3F)C2=O)C(=O)N1 (stereo partly drawn) [Compound 25, 3-(5-(((1S,2S)-2-(3-cyclobutylazetidin-1-yl)cyclohexyl)oxy)-4-fluoro-1-oxoisoindolin-2-yl)piperidine-2,6-dione]
16 | > 30 | > 30 | O=C1CCC(N2Cc3cc(O[C@H]4CCCC[C@@H]4N4CC(C5CC5)C4)c(F)cc3C2=O)C(=O)N1 (stereo partly drawn) [Compound 26, 3-(5-(((1S,2S)-2-(3-cyclopropylazetidin-1-yl)cyclohexyl)oxy)-6-fluoro-1-oxoisoindolin-2-yl)piperidine-2,6-dione]
17 | > 30 | > 30 | O=C1CCC(N2Cc3cc(O[C@H]4CCCC[C@@H]4N4CC(C5CCC5)C4)c(F)cc3C2=O)C(=O)N1 (stereo partly drawn) [Compound 27, 3-(5-(((1S,2S)-2-(3-cyclobutylazetidin-1-yl)cyclohexyl)oxy)-6-fluoro-1-oxoisoindolin-2-yl)piperidine-2,6-dione]

— patent US20240287037A1, “CYCLOALKYL COMPOUNDS AND PHARMACEUTICAL COMPOSITIONS THAT MODULATE IKZF2” (Plexium, Inc., priority 2021, published 2024)
